Reference: patent EP0060776B1, “Medicaments for the treatment of obesity and hyperlipoidemia” (SOMACHIM S.A., priority 1981, dated 1982)

How the values were obtained:
Patch tests in humans = assay type: in vivo, homme; settings: human
[1] = 5-day tolerance study in obese human volunteers; assay type: in vivo, homme; settings: 5 obese volunteers, 0,3 mg daily in 3 oral doses, 5 days
Method: On a administré à un groupe de 5 volontaires obèses une dose journalière de 0,3 mg d'acide 3,5- dilodo-3'-isopropylthyroacétique en 3 prises orales, durant une première période de 5 jours durant lesquels la tolérance fut vérifiée.

[2] = Magnusson and Kligman sensitisation test; assay type: in vivo, cobaye; settings: guinea pig
Source text: De plus, un test de Manusson et Kligman a été pratiqué chez le cobaye. Ce test prédictif s'est révélé négatif, c'est-à-dire qu'aucun animal n'a montré une quelconque sensibilisation d'ordre allergique au produit.

[3] = Weekly food consumption of genetically obese and normal Zucker rats; assay type: in vivo, rattes Zucker; design: Consommation d'aliments: unit not given here; settings: for Consommation d'aliments: weekly, treated
Source text: (§1) Les animaux employés sont des rattes Zucker âgées de 7 à 8 semaines au début de l'expérimentation. Les animaux ont été placés en cages individuelles et recevaient ad libitum une alimentation équilibrée et vitaminée spéciale pour rats, identique pour tous les lots. La boisson était également présentée ad libitum. Les lots d'animaux ont été établis de telle sorte que le poids-de départ soit sensiblement identique pour les témoins et les traités, chaque lot comporte 6 animaux.
(§2) On a administré une dose journalière de 17,5 µg (30n mol) par 100 g. de poids corporel pendant 4 semaines. Les poids moyens des animaux traités et non traités ont été notés chaque fin de semaine chez les témoins et chez les obèses. Les résultats sont rassemblés dans le tableau ci-dessous.
Par ailleurs, la consommation hebdomadaire d'aliments a été notée et les résultats rassemblés dans le tableau ci-dessus.
Enfin le tableau suivant rassemble pour chaque semaine l'observation du rapport : • R = (consommation hebdomadaire (CH))/(gain de poids hebdomadaire (GPH)) [formula]

[4] = 4-week oral treatment of hospitalised obese patients; assay type: in vivo, homme; settings: for POIDS Après (J+30): 0,3 mg daily orally, 1 400 cal/j diet
Method: Après cet essai d'autres volontaires obèses ont été traités par l'acide 3,5-dilodo-3'-isopropyl- thyroacétique à la dose journalière de 0,3 mg en 2 prises orales durant 4 semaines. La tolérance fut surveillée très attentivement (malades hospitalisés) et fut parfaite.
Le poids des 6 patients obèses hospitalisés sous régime hypocalorique, hypoglucidique, hyperproti- dique à 1 400 cal/j et traités comme il est indiqué ci-dessus a régressé. Le tableau ci-après rassemble les résultats obtenus.

[5] = Blood cholesterol of the treated Zucker rats; assay type: in vivo, rattes Zucker
Source text: as §1, §2
La cholestérolémie a été dosée chez les animaux dont les courbes pondérales et de consommation alimentaire ont été rapportées ci-dessus. Les résultats sont les suivants : • Rats normaux non traités 0,9-1 g par litre (2,5 mmol par l.) • Rats normaux traités (4 semaines) 0,9-1 g par litre (2,5 mmol par 1.) • Rats génétiquement obèses non traités • 1,7-1,8 (X = 1,75) g par litre (4,51 mmol par litre) • Rats génétiquement obèses traités (4 semaines) • 1,1 g par litre (2,87 mmol par litre)

[6] = Weight gain of genetically obese and normal Zucker rats, daily gavage for 4 weeks; assay type: in vivo, rattes Zucker
Source text: On a notamment étudié les effets de l'acide 3,5-diiodo-3'-isopropyl-thyroacétique sur la prise de poids de la ratte génétiquement obèse, par administration au moyen d'une sonde oesophagienne et en comparaison avec des rattes normales.
as §1, §2

[7] = Acute oral toxicity (DL50) in the rat; settings: in vivo
Source text: La toxicité de l'acide 3,5-diiodo-3'-isopropyt-thyroacétique a également été examinée sur le rat.

[8] = 30-day repeated-dose toxicity in rats at 1/5 of the DL50; assay type: in vivo
Source text: Par ailleurs, le 1/5 de la dose L 50 a été administré à 20 rats durant 30 jours, 7 jours sur 7. Aucune mort n'a été constatée. […] La formule sanguine est normale.

[9] = 6 obese patients, 0,3 mg daily, 4 weeks

Question: With `CC(C)c1cc(Oc2c(I)cc(CC(=O)O)cc2I)ccc1O` [acide 3,5-diiodo-3'-isopropyl-thyroacétique] as the molecule, how does the patchtests (Patch tests in humans) read?
Answer: Its patchtests is “n'était pas allergogène”.

Question: And the “tolérance: tension artérielle, rythme cardiaque, transaminases et phosphatases, glucose, urée sanguine, créatinine urinaire” value [1]?
Answer: Its value is “aucun paramètre n'a subi de modification”.

Question: What about the “sensibilisation d'ordre allergique” value [2] of the same molecule?
Answer: Its value is “négatif”.

Question: And the consommation alimentaire ([3]; normal animals)?
Answer: Its consommation alimentaire is “ne modifie pas la consommation alimentaire”.

Question: What about the consommation alimentaire ([3]; obese animals) of the same molecule?
Answer: The consommation alimentaire was “réduit celle des animaux obèses”.

Question: What about the “effet anorexigène” value ([3]; rat, concluded from the ratio weekly consumption / weekly weight gain) of the same molecule?
Answer: Its value is “aucun effet anorexigène”.

Question: And the “Consommation d'aliments” value ([3]; normal Zucker rats (Témoins), day 7, initial mean consumption 78)?
Answer: Its value is 83.

Question: What about the “Consommation d'aliments” value ([3]; normal Zucker rats (Témoins), day 14, initial mean consumption 78) of the same molecule?
Answer: The value was 112.

Question: And the “Consommation d'aliments” value ([3]; normal Zucker rats (Témoins), day 21, initial mean consumption 78)?
Answer: Its value is 120.

Question: And the “Consommation d'aliments” value ([3]; normal Zucker rats (Témoins), day 28, initial mean consumption 78)?
Answer: The value was 118.

Question: And the “Consommation d'aliments” value ([3]; obese Zucker rats (Obèses), day 7, initial mean consumption 118)?
Answer: The value was 124.

Question: What about the “Consommation d'aliments” value ([3]; obese Zucker rats (Obèses), day 14, initial mean consumption 118) of the same molecule?
Answer: Its value is 131.

Question: And the “Consommation d'aliments” value ([3]; obese Zucker rats (Obèses), day 21, initial mean consumption 118)?
Answer: Its value is 148.

Question: What about the “Consommation d'aliments” value ([3]; obese Zucker rats (Obèses), day 28, initial mean consumption 118) of the same molecule?
Answer: The value was 142.

Question: And the “taux de cholestérol sanguin” value [4, 9]?
Answer: Its value is “notablement été abaissé”.

Question: What about the “transaminases, phosphatases, uricémie, créatinurie” value [4, 9] of the same molecule?
Answer: Its value is “aucune modification”.

Question: What about the glycémie ([4]; 6 obese patients, 4 weeks, the patent attributes the effect probably to the diet) of the same molecule?
Answer: Its glycémie is “a diminué également de manière significative”.

Question: What about the poids ([4]; obese humans, statement in words) of the same molecule?
Answer: The poids was “baisse de poids très substantielle”.

Question: And the “POIDS Après (J+30)” value ([4]; obese patient 1, before (J-0) 115)?
Answer: The value was 107.

Question: And the “POIDS Après (J+30)” value ([4]; obese patient 2, before (J-0) 108)?
Answer: The value was 101.

Question: What about the “POIDS Après (J+30)” value ([4]; obese patient 3, before (J-0) 97) of the same molecule?
Answer: The value was 89.

Question: What about the “POIDS Après (J+30)” value ([4]; obese patient 4, before (J-0) 103) of the same molecule?
Answer: The value was 93.

Question: And the “POIDS Après (J+30)” value ([4]; obese patient 5, before (J-0) 85)?
Answer: The value was 81.

Question: What about the “POIDS Après (J+30)” value ([4]; obese patient 6, before (J-0) 111) of the same molecule?
Answer: The value was 104.

Question: What about the tolérance ([4]; obese volunteers, hospitalised, 0,3 mg daily in 2 oral doses, 4 weeks) of the same molecule?
Answer: The tolérance was “parfaite”.

Question: And the “taux de cholestérol” value ([5]; animals with normal cholesterol level)?
Answer: Its value is “n'a pas d'effet”.

Question: What about the cholestérolémie ([5]; genetically obese rats treated 4 weeks, untreated obese rats 1,7-1,8) of the same molecule?
Answer: The cholestérolémie was 1,1 g par litre.

Question: What about the cholestérolémie ([5]; genetically obese rats treated 4 weeks, untreated obese rats 4,51) of the same molecule?
Answer: The cholestérolémie was 2,87 mmol par litre.

Question: And the “taux de cholestérol” value ([5]; hypercholesterolemic animals)?
Answer: Its value is “baisser sensiblement”.

Question: And the cholestérolémie ([5]; normal rats treated 4 weeks, untreated normal rats 0,9-1)?
Answer: Its cholestérolémie is 0,9-1 g par litre.

Question: What about the cholestérolémie ([5]; normal rats treated 4 weeks, untreated normal rats 2,5) of the same molecule?
Answer: The cholestérolémie was 2,5 mmol par 1.

Question: What about the Poids moyens ([6]; genetically obese Zucker rats (Obèses), treated, 17,5 µg per 100 g daily, day 7, initial mean weight 135 g) of the same molecule?
Answer: The Poids moyens was 148 g.

Question: And the Poids moyens ([6]; genetically obese Zucker rats (Obèses), treated, 17,5 µg per 100 g daily, day 14, initial mean weight 135 g)?
Answer: The Poids moyens was 168 g.

Question: And the Poids moyens ([6]; genetically obese Zucker rats (Obèses), treated, 17,5 µg per 100 g daily, day 21, initial mean weight 135 g)?
Answer: Its Poids moyens is 190 g.

Question: What about the Poids moyens ([6]; genetically obese Zucker rats (Obèses), treated, 17,5 µg per 100 g daily, day 28, initial mean weight 135 g) of the same molecule?
Answer: Its Poids moyens is 206 g.

Question: What about the prise de poids ([6]; genetically obese Zucker rats, 17,5 µg per 100 g body weight) of the same molecule?
Answer: The prise de poids was “ralentit la prise de poids”.

Question: And the Poids moyens ([6]; normal Zucker rats (Témoins), treated, 17,5 µg per 100 g body weight daily by gavage, day 7, initial mean weight 102 g)?
Answer: The Poids moyens was 119 g.

Question: And the Poids moyens ([6]; normal Zucker rats (Témoins), treated, 17,5 µg per 100 g daily, day 14, initial mean weight 102 g)?
Answer: Its Poids moyens is 137 g.

Question: And the Poids moyens ([6]; normal Zucker rats (Témoins), treated, 17,5 µg per 100 g daily, day 21, initial mean weight 102 g)?
Answer: Its Poids moyens is 152 g.

Question: And the Poids moyens ([6]; normal Zucker rats (Témoins), treated, 17,5 µg per 100 g daily, day 28, initial mean weight 102 g)?
Answer: The Poids moyens was 163 g.

Question: And the croissance ([6]; normal Zucker rats, 17,5 µg per 100 g body weight)?
Answer: Its croissance is “ne modifie pas significativement la croissance”.

Question: What about the “observation of behaviour and growth” value [7] of the same molecule?
Answer: The value was “aucun trouble de comportement ni de croissance”.

Question: And the LD50 at 336 h ([7]; po, solution by oesophageal tube, 12 animals)?
Answer: Its LD50 at 336 h is 5.4 mg/kg.

Question: What about the mortality ([8]; 20 rats, 1/5 of the DL50 daily for 30 days) of the same molecule?
Answer: Its mortality is “Aucune mort”.

Question: What about the “autopsy, macroscopic state of the organs” value ([8]; rat, in vivo) of the same molecule?
Answer: Its value is “aucun organe n'était macroscopiquement modifié à l'exception d'une légère pâleur des thyroïdes”.

Question: What about the “composantes biochimiques principales, glycémie, uricémie, urémie” value ([8]; rat, in vivo) of the same molecule?
Answer: The value was “évoluent dans les limites habituelles à l'espèce”.

Question: And the formule sanguine ([8]; rat, in vivo)?
Answer: Its formule sanguine is “normale”.

Question: And the “histologie du foie, rate, rein, thyroïde, surénales” value ([8]; rat, in vivo)?
Answer: Its value is “n'a rien révélé d'anormal”.
